Structures can show the parent of a compound that is named as a salt.
Assays:
[1] = tested on: restless legs syndrome (RLS); assay: clinical case studies of patients with restless legs syndrome; format: in vivo, human; settings: for benefit in controlling the RLS, earlier treatment: used in the previous 15 years; for benefit of earlier treatment of the RLS: before topiramate
Description: The ability of the compounds of formula I to treat restless legs syndrome, restless arm syndrome and associated sleep disorders is based on the results of recent clinical case studies, as described in more detail below.
(§1) Prior to treatment, within 15 minutes of falling asleep, the patient was awakened by uncontrollable jerking of their legs. […] The patient had also used lorazepam and alprazolam to treat the RLS, with some benefit.
(§2) The patient was switched to topiramate, initially at 25 mg, with a gradual increase in dosage to 75 mg/day for treatment of the RLS. Sertraline HCl at 100 mg/day was added for the treatment of their concurrent depression. Lorazepam and alprazolam were discontinued. The RLS and depression symptoms were both reduced.
In the previous 15 years, the patient had also used carisoprodol, chlordiazepoxide HCl, clorazepate dipotassium, meprobamate, phenobarbital, flurazepam HCl, promethazine, levodopa and carbidopa, with some benefit in controlling the RLS.
Topiramate was started at 25 mg/day and increased gradually to 300 mg/day during a six month period.
The patient was a person, with diagnosed recurrent unipolar depression, post traumatic stress disorder, panic disorder, nicotine, alcohol and cannabis dependency. The patient also complained of migraine headaches and restless leg syndrome.
The patient was started at 25 mg HS topiramate, with dosage increased to 100 mg HS and then further increased to a final dosage of 200 mg HS. Concurrent pharmacotherapy included clonazepam at 2 mg/day, desipramine HCl at 10 mg/day, clonidine at […] b.i.d., mirtazepine at 15 mg HS, triamcinolone acetonide prn, albuterol prn, potassium at […], A to Z multivitamin 1×/day and fluticasone propionate prn.

[2] = side effects reported in the clinical case studies; format: in vivo, human; settings: Example 2, person; 5 mg/day for the RLS
[3] = tested on: simple and complex partial seizures and secondarily generalized seizures; settings: adjunctive therapy or monotherapy; cited from earlier work
seizures = settings: several rodent models of epilepsy; cited from earlier work
kindled epilepsy = settings: animal model of kindled epilepsy; cited from earlier work
depression = assay: clinical case study, concurrent depression (Example 1); format: in vivo, human; settings: Example 1, patient; sertraline HCl 100 mg/day added to topiramate 75 mg/day
Description: as §1, §2

RLS symptoms = settings: case study report, Hargrave and Beckley 1998; cited from earlier work

SMILES: C[C@@](Cc1ccc(O)c(O)c1)(NN)C(=O)O [carbidopa]
- benefit in controlling the RLS, earlier treatment ([1]; Example 2, person): some benefit

SMILES: N[C@@H](Cc1ccc(O)c(O)c1)C(=O)O [levodopa]
- benefit in controlling the RLS, earlier treatment ([1]; Example 2, person): some benefit

SMILES: Cc1nnc2n1-c1ccc(Cl)cc1C(c1ccccc1)=NC2 [alprazolam]
- benefit of earlier treatment of the RLS ([1]; Example 1, patient): some benefit

SMILES: CCCC(C)(COC(N)=O)COC(N)=O [meprobamate]
- benefit in controlling the RLS, earlier treatment ([1]; Example 2, person): some benefit

SMILES: O=C(O)C1N=C(c2ccccc2)c2cc(Cl)ccc2NC1=O (stereo not shown) [clorazepate dipotassium]
- benefit in controlling the RLS, earlier treatment ([1]; Example 2, person): some benefit

SMILES: OC(CCN1CCCCC1)(c1ccccc1)C1CCCCC1 (stereo not shown) [trixenryphenidyl]
- side effects [2]: dry mouth, blurred vision and amnesia

SMILES: CCN(CC)CCN1C(=O)CN=C(c2ccccc2F)c2cc(Cl)ccc21 [flurazepam HCl]
- benefit in controlling the RLS, earlier treatment ([1]; Example 2, person): some benefit

SMILES: CNC1=Nc2ccc(Cl)cc2C(c2ccccc2)=[N+]([O-])C1 [chlordiazepoxide HCl]
- benefit in controlling the RLS, earlier treatment ([1]; Example 2, person): some benefit

SMILES: CCCC(C)(COC(N)=O)COC(=O)NC(C)C (stereo not shown) [carisoprodol]
- benefit in controlling the RLS, earlier treatment ([1]; Example 2, person): some benefit

SMILES: CC1(C)O[C@@H]2[C@@H](CO[C@@]3(COS(N)(=O)=O)OC(C)(C)O[C@@H]23)O1 [topiramate, 2,3:4,5-bis-O-(1-methylethylidene)-β-D-fructopyranose sulfamate]
- RLS symptoms ([1]; Example 1, patient, topiramate 25 mg increased to 75 mg/day, with sertraline HCl 100 mg/day, lorazepam and alprazolam discontinued): reduced
- restless legs syndrome symptoms, patient report ([1]; Example 2, person, 25 mg/day increased to 300 mg/day during six months): successfully reduced
- effectiveness for RLS compared with carisoprodol, patient report ([1]; Example 3, person): more effective than carisoprodol
- effectiveness for RLS of topiramate and clonazepam in combination, patient report ([1]; Example 3, person, the two drugs in combination): more effective than either drug alone
- effectiveness for restless leg syndrome compared with clonazepam 6 mg HS, patient report ([1]; Example 3, person, topiramate 100 mg HS): as effective as clonazepam 6 mg HS
- efficacy in treating seizures in clinical trials [3]: effective
- block of seizures (seizures): effectively block seizures
- block of seizures (kindled epilepsy): effectively block seizures

SMILES: CC(CN1c2ccccc2Sc2ccccc21)N(C)C (stereo not shown) [promethazine]
- benefit in controlling the RLS, earlier treatment ([1]; Example 2, person): some benefit

SMILES: O=C1Nc2ccc(Cl)cc2C(c2ccccc2Cl)=NC1O (stereo not shown) [lorazepam]
- benefit of earlier treatment of the RLS ([1]; Example 1, patient): some benefit

SMILES: CN[C@H]1CC[C@@H](c2ccc(Cl)c(Cl)c2)c2ccccc21 [Sertraline HCl]
- depression symptoms (depression): reduced
- change of RLS symptoms associated with the drug (RLS symptoms): increase in RLS symptoms

SMILES: O=C1CN=C(c2ccccc2Cl)c2cc([N+](=O)[O-])ccc2N1 [clonazepam]
- effect on the RLS symptoms ([1]; Example 2, person, 2-4 mg/day): very little positive effect
